One test has as its system HIV-1LAI. Nature of the test: Antiviral assay using MT-2 cells exposed to HIV-1LAI. The test is classed as cell-based.
The next test has as its system HIV-1NL4-3. The experiment in a line: Antiviral p24 assay, MT-4 cells exposed to wild-type HIV-1NL4-3. The class given is cell-based.
Another test concerns HIV-1DRV^RP20. Nature of the test: microbe, parasite or virus in culture. The class given is cell-based. The following applies: for fold change of IC50: HIV-1DRV^RP20 relative to HIV-1NL4-3.
The subject of the next test is HIV-1DRV^RP40. The experiment in a line: microbe, parasite or virus in culture. The class given is cell-based. As to conditions: for fold change of IC50: HIV-1DRV^RP40 relative to HIV-1NL4-3.
The test system of another test is HIV-1DRV^RP30. The experiment in a line: microbe, parasite or virus in culture. The test is classed as cell-based. The following applies: for fold change of IC50: HIV-1DRV^RP30 relative to HIV-1NL4-3.
A further test deals with HIV-1 protease (Human immunodeficiency virus type 1 group M subtype B, UniProt P04585). Nature of the test: HIV-1 protease inhibitory assay. The test is classed as biochemical.
Another test relates to HIVAO2. The experiment in a line: Antiviral activity of 3b against HIVAO2. The class given is cell-based, HIV.
Another test has as its system HIV-2ROD. Nature of the test: Antiviral activity of 3b against HIV-2ROD. The test is classed as cell-based. The following applies: read-out: Antiviral activity (EC50).
For the next test, the system named is HIVDRV^RP20. The experiment in a line: Antiviral activity of 3b against HIVDRV^RP20. The test is classed as cell-based, HIV. As to conditions: read-out: Antiviral activity (EC50).
[1] abbreviates: Human immunodeficiency virus 1, MT2, read-out: antiviral IC50.
Where [2] appears, read: Human immunodeficiency virus 1, MT4.
Setting [3] is: read-out: antiviral IC50, MT-2 cells exposed to HIV-1LAI, mean of at least three experiments.

Where two headings read alike, the source gives them in different places. Where only a bound is given, the exact number is not on record here.

A word on the IC50: it is the concentration that inhibits the measured activity by half. As to `CC(C)CN(C[C@@H](O)[C@H](Cc1ccccc1)NC(=O)O[C@H]1CO[C@H]2OCC[C@H]21)S(=O)(=O)c1ccc(N)cc1` [DRV, darunavir, reference compound], the IC50 with HIV-1LAI (setting [1]) is 1.6 nM; in the test with HIV-1NL4-3 (setting [2]), 3.4 nM; with HIV-1DRV^RP20 (setting [2]), 43 nM; with HIV-1DRV^RP40 (setting [2]) it was > 1000 nM.

For `CC(C)CN(C[C@@H](O)[C@H](Cc1ccccc1)NC(=O)O[C@H]1CO[C@H]2OCC[C@H]21)S(=O)(=O)c1ccc(-c2nc(CO)co2)cc1` [3h, (3R,3aS,6aR)-Hexahydrofuro[2,3-b]furan-3-yl ((2S,3R)-3-hydroxy-4-((4-(4-(hydroxymethyl)oxazol-2-yl)-N-isobutylphenyl)sulfona-mido)-1-phenylbutan-2-yl)carbamate], the IC50 in the test on HIV-1LAI (setting [3]) is 3.9 nM; in the test on HIV-1NL4-3 (MT-4 cells, 50 TCID50 HIV-1NL4-3, p24 assay), 3 nM; in the test on HIV-1DRV^RP20 (MT-4 cells, 50 TCID50 HIV-1DRV^RP20, p24 assay), 260 nM; in the test on HIV-1DRV^RP30 (MT-4 cells, 50 TCID50 HIV-1DRV^RP30, p24 assay) it was 290 nM; with HIV-1DRV^RP40 (MT-4 cells, 50 TCID50 HIV-1DRV^RP40, p24 assay), > 1000 nM. Moreover, the “fold change of IC50” value with HIV-1DRV^RP20 is on record as 88; with HIV-1DRV^RP30 it was 99; in the test on HIV-1DRV^RP40 it was > 337.

As usually defined, the Ki is the equilibrium dissociation constant of an inhibitor or competing ligand from its target. A higher Ki goes with weaker binding. In the case of `COC(=O)c1coc(-c2ccc(S(=O)(=O)N(CC(C)C)C[C@@H](O)[C@H](Cc3ccccc3)NC(=O)O[C@H]3CO[C@H]4OCC[C@H]43)cc2)n1` [3g, Methyl 2-(4-(N-((2R,3S)-3-(((((3R,3aS,6aR)-hexahydrofuro[2,3-b]furan-3-yl)oxy)carbonyl)amino)-2-hydroxy-4-phenylbutyl)-N-isobutylsulfamoyl)phenyl)oxazole-4-carboxylate], the Ki on HIV-1 protease turned out to be 0.0279 nM. Moreover, the IC50 was 6.2 nM in the test on HIV-1LAI (setting [1]); 22 nM in the test with HIV-1NL4-3 (setting [2]); 320 nM in the test on HIV-1DRV^RP20 (setting [2]); 430 nM in the test on HIV-1DRV^RP30 (setting [2]); > 1000 nM with HIV-1DRV^RP40 (setting [2]). Besides, the “fold change of IC50” value with HIV-1DRV^RP20 is listed as 15; with HIV-1DRV^RP30 it was 20; in the test on HIV-1DRV^RP40 it was > 46.

The term EC50 denotes the concentration needed to bring the measured effect to its halfway point. For `CC(C)CN(C[C@@H](O)[C@H](Cc1ccccc1)NC(=O)O[C@H]1CO[C@H]2OCC[C@H]21)S(=O)(=O)c1ccc(C(N)=O)cc1` [3b, (3R,3aS,6aR)-Hexahydrofuro[2,3-b]furan-3-yl ((2S,3R)-4-((4-carba-moyl-N-isobutylphenyl)sulfonamido)-3-hydroxy-1-phenylbutan-2-yl)carbamate], in the test on HIV-1LAI (setting [3]), the IC50 is 45 nM. The results for the EC50 with HIVAO2, in the test with HIV-2ROD and in the test on HIVDRV^RP20 were 29 nM, 30 nM and 97 nM, respectively.

On to `CC(C)CN(C[C@@H](O)[C@H](Cc1ccccc1)NC(=O)O[C@H]1CO[C@H]2OCC[C@H]21)S(=O)(=O)c1ccc([C@@H](C)O)cc1` [3e, (3R,3aS,6aR)-Hexahydrofuro[2,3-b]furan-3-yl ((2S,3R)-3-hydroxy-4-((4-((R)-1-hydroxyethyl)-N-isobutylphenyl)sulfonamido)-1-phe-nylbutan-2-yl)carbamate], for which the IC50 in the test on HIV-1LAI (setting [3]) stood at 4 nM.

Consider `CC(C)CN(C[C@@H](O)[C@H](Cc1ccccc1)NC(=O)O[C@H]1CO[C@H]2OCC[C@H]21)S(=O)(=O)c1ccc(C(=O)O)cc1` [3a, 4-(N-((2R,3S)-3-(((((3R,3aS,6aR)-Hexahydrofuro[2,3-b]furan-3-yl)oxy)carbonyl)amino)-2-hydroxy-4-phenylbutyl)-N-isobutylsul-famoyl)benzoic acid], for which the IC50 in the test with HIV-1LAI (read-out: antiviral IC50, MT-2 cells exposed to HIV-1LAI) was > 1000 nM.

For `CC(C)CN(CC(O)C(Cc1ccccc1)NC(=O)OC1COC2OCCC12)S(=O)(=O)c1ccc(-c2cnco2)cc1` [3i, (3R,3aS,6aR)-Hexahydrofuro[2,3-b]furan-3-yl ((2S,3R)-3-hydroxy-4-((N-isobutyl-4-(oxazol-5-yl)phenyl)sulfonamido)-1-phenylbu-tan-2-yl)carbamate], in the test on HIV-1LAI (setting [3]), the IC50 is 2.8 nM.

The values are drawn from article PMC5896574 (ChemMedChem, 2017).
